From article PMC11547840, “The Intestinal Barrier Protective Effect of Indole Aldehyde Derivatives on Acute Toxoplasma gondii Infection” (Molecules, 2024)
Entries after “also recorded” stand apart in the source; their conditions may differ.

Tested on: not listed separately
Experiment: Small intestine histology and pathology scoring of T. gondii-infected mice
Format: in vivo
Conditions: 100 mg/kg oral once a day for 6 days
From the text: (§1) For the in vivo study, KM female mice were divided into groups consisting of six animals each and then intraperitoneally injected with 2 × 10^3 tachyzoites. […] On the last day, heart blood samples were collected after anesthesia to separate the serum, and after mice were sacrificed by cervical dislocation, mice were dissected to obtain organs and tissues. The tachyzoites were harvested from mice peritoneal cavities to determine the level of tachyzoite proliferation. The peritoneal fluid was collected twice; the first time, it was centrifuged at 500 rpm for 10 min, then the supernatant was centrifuged at 2500 rpm for 20 min, discarded, and the worm precipitate was collected at the bottom, and mixed with an appropriate amount of physiological saline. A total of 10 μL of T. gondii suspension was mixed with 10 μL of 4% Trypan blue staining solution in a 1.5 mL centrifuge tube.
The histology research includes apparent pathological change score, H&E staining and histopathological scores of tissue, as shown in Table 4 and Table 5. In detail, the obtained small intestine tissues were fixed in formalin solution and embedded in paraffin wax after gradual dehydration with different concentrations of ethanol. The paraffin fast was sectioned to a thickness of 5 μm, rehydrated and stained with hematoxylin and eosin, respectively, and finally permeabilized with xylene and sealed with neutral gum. A light microscope was used to observe and collect pictures, and the degree of damage to the small intestinal tissues was assessed according to Chiu’s six-grade scale.

Compound | intestinal barrier damage induced by T. gondii infection (histology, H&E) | apparent pathological damage score (intestine apparent pathology scoring)
N#CCc1cn(C=O)c2ccccc12 [A1, 1-Formyl-1H-indole-3-acetonitrile] | demonstrate potential in ameliorating intestinal barrier damage | 
O=Cc1c[nH]c2ccccc12 [A3, Indole-3-carboxaldehyde] | most effective, surpassing the control drug Spy in efficacy | significantly lower apparent pathological damage score compared to Spy
O=Cc1c(Cl)[nH]c2ccccc12 [A5, 2-Chloro-1H-indole-3-carbaldehyde] | demonstrate potential in ameliorating intestinal barrier damage | 
Cn1cc(C=O)c2ccccc21 [A8, 1-Methyl-indole-3-carbaldehyde] | demonstrate potential in ameliorating intestinal barrier damage | 

Tested on: IEC-6 cells
Experiment: MTT cytotoxicity assay in IEC-6 cells
Format: cell-based
Conditions: Rattus norvegicus, IEC-6, 24 h, read-out: IC50 in IEC-6 Cells
Experimental: (§2) Anti-T. gondii activity and cytotoxicity of indole derivatives in vitro were evaluated by MTT assay (Solarbio, Beijing, China) using a slightly modified version of the procedure of Shang et al.. IEC-6 cells were seeded onto the 96-well plates (2 × 10^3/well) for 24 h to obtain the full monolayer, and then the host cells were infected with T. gondii (parasite: cell = 3:1) in complete medium. After 24 h, cells were washed to remove any extra parasites and then incubated with different concentrations (20, 200, 500 and 1000 μm) of […]. […] After 24 h of treatment, MTT solution was added directly to the culture wells and then incubated for 4 h at 37 °C. The optical absorbance was measured at a wavelength of 548 nm using a microplate reader (SpectraMax M2, Molecular Devices, Sunnyvale, CA, USA). Giemsa staining was used to observe the changes in cell morphology and the proliferation of T. gondii-infected cells. IEC-6 (1 × 10^5 cells/well) was inoculated into 24-well plates containing round coverslip, and after the cells were attached to the wall, T. gondii (3 × 10^5 cells/well) was added to infect the cells for 3 h. After the culture medium was discarded, PBS was added to remove the uninvaded tachyzoites. […] After discarding the supernatant, the cells were washed with PBS and completely aspirated, and then fixed by adding 0.5 mL of methanol for 3 min. Giemsa staining solution was added and shaken slightly to make the staining uniform. Coverslips were rinsed with distilled water to replace the staining solution, and finally, the slices were sealed with neutral gum and air-dried.

Compound | IC50 [µM]
NCCc1cn(C=O)c2ccccc12 [A2, 1-Formyl-1H-indole-3-ethanamine] | > 1000
COC(=O)c1cn(C=O)c2ccccc12 [A6, 1-formyl-1H-indole-3-carboxylic acid methyl ester] | 633 ± 9.8
c1ccc2[nH]ccc2c1 [Indole, indole] | 939.6 ± 5.4

Same assay, conditions: Rattus norvegicus; MTT; concentration required to reduce IEC-6 cell growth by 50%; 24 h treatment; read-out: IC50 in IEC-6 Cells

Compound | IC50 [µM]
N#CCc1cn(C=O)c2ccccc12 [A1, 1-Formyl-1H-indole-3-acetonitrile] | 417
O=Cc1c[nH]c2ccccc12 [A3, Indole-3-carboxaldehyde] | 869.2 ± 4
O=Cc1c[nH]c2ncc(Br)cc12 [A4, 5-bromo-1H-pyrrolo[2,3-b] pyridine-3-carbaldehyde] | 960.3 ± 2.5
O=Cc1c(Cl)[nH]c2ccccc12 [A5, 2-Chloro-1H-indole-3-carbaldehyde] | 602 ± 9.9
Clc1cc2ccccc2[nH]1 [A7, 2-Chloro-1H-indole] | 283.7 ± 2.6
Cn1cc(C=O)c2ccccc21 [A8, 1-Methyl-indole-3-carbaldehyde] | 650 ± 7.9

Tested on: T. gondii
Experiment: MTT anti-T. gondii activity in T. gondii-infected IEC-6 cells
Format: cell-based, Toxoplasma gondii
Conditions: IC50 in IEC-6 cells/IC50 in T. gondii-infected IEC-6 cells
Experimental: as §2

Compound | Selective Index (SI)
N#CCc1cn(C=O)c2ccccc12 [A1, 1-Formyl-1H-indole-3-acetonitrile] | 1.2
O=Cc1c[nH]c2ccccc12 [A3, Indole-3-carboxaldehyde] | 1.3
O=Cc1c[nH]c2ncc(Br)cc12 [A4, 5-bromo-1H-pyrrolo[2,3-b] pyridine-3-carbaldehyde] | 1.0
O=Cc1c(Cl)[nH]c2ccccc12 [A5, 2-Chloro-1H-indole-3-carbaldehyde] | 1.1
COC(=O)c1cn(C=O)c2ccccc12 [A6, 1-formyl-1H-indole-3-carboxylic acid methyl ester] | 0.9
Clc1cc2ccccc2[nH]1 [A7, 2-Chloro-1H-indole] | 1.0
Cn1cc(C=O)c2ccccc21 [A8, 1-Methyl-indole-3-carbaldehyde] | 1.1
c1ccc2[nH]ccc2c1 [Indole, indole] | 1.0

Same assay, conditions: Toxoplasma gondii, IEC-6, 24 h, read-out: IC50 in T. gondii

Compound | IC50 [µM]
NCCc1cn(C=O)c2ccccc12 [A2, 1-Formyl-1H-indole-3-ethanamine] | > 1000
COC(=O)c1cn(C=O)c2ccccc12 [A6, 1-formyl-1H-indole-3-carboxylic acid methyl ester] | 742 ± 10.5
c1ccc2[nH]ccc2c1 [Indole, indole] | 921.2 ± 5

Same assay, conditions: Toxoplasma gondii; MTT; concentration required to reduce T. gondii-infected IEC-6 cell growth by 50%; 24 h treatment; read-out: IC50 in T. gondii

Compound | IC50 [µM]
N#CCc1cn(C=O)c2ccccc12 [A1, 1-Formyl-1H-indole-3-acetonitrile] | 342
O=Cc1c[nH]c2ccccc12 [A3, Indole-3-carboxaldehyde] | 675 ± 8.3
O=Cc1c[nH]c2ncc(Br)cc12 [A4, 5-bromo-1H-pyrrolo[2,3-b] pyridine-3-carbaldehyde] | 995.7 ± 4.9
O=Cc1c(Cl)[nH]c2ccccc12 [A5, 2-Chloro-1H-indole-3-carbaldehyde] | 564 ± 6.9
Clc1cc2ccccc2[nH]1 [A7, 2-Chloro-1H-indole] | 287 ± 6.1
Cn1cc(C=O)c2ccccc21 [A8, 1-Methyl-indole-3-carbaldehyde] | 571 ± 7.4

Tested on: T. gondii
Experiment: Giemsa staining: cell infection rate and intracellular tachyzoites in IEC-6 cells
Format: cell-based, Toxoplasma gondii
Conditions: IEC-6 cells infected 3 h, drug 12 h at the IC50 value of the cells, Toxo group 49.2%
Experimental: as §2

Compound | cell infection rate [%]
N#CCc1cn(C=O)c2ccccc12 [A1, 1-Formyl-1H-indole-3-acetonitrile] | 26.0
O=Cc1c[nH]c2ccccc12 [A3, Indole-3-carboxaldehyde] | 15.0
O=Cc1c(Cl)[nH]c2ccccc12 [A5, 2-Chloro-1H-indole-3-carbaldehyde] | 20.3
Cn1cc(C=O)c2ccccc21 [A8, 1-Methyl-indole-3-carbaldehyde] | 20.5
c1ccc2[nH]ccc2c1 [Indole, indole] | 32.2

Same assay, conditions: IEC-6 cells infected 3 h, drug 12 h at the IC50 value of the cells, Toxo group 254

Compound | number of intracellular tachyzoites
O=Cc1c[nH]c2ccccc12 [A3, Indole-3-carboxaldehyde] | more effective than Spy
O=Cc1c(Cl)[nH]c2ccccc12 [A5, 2-Chloro-1H-indole-3-carbaldehyde] | more effective than Spy
Cn1cc(C=O)c2ccccc21 [A8, 1-Methyl-indole-3-carbaldehyde] | more effective than Spy

Tested on: T. gondii
Experiment: In vivo anti-T. gondii activity, peritoneal tachyzoite count by Trypan Blue
Parameters: species or system Toxoplasma gondii
Conditions: mice peritoneal T. gondii; (untreated group − treated group)/untreated group × 100%; 100 mg/kg oral once a day for 6 days
From the text: as §1

Compound | Inhibition Rate [%]
O=Cc1c[nH]c2ccccc12 [A3, Indole-3-carboxaldehyde] | 33.3
O=Cc1c(Cl)[nH]c2ccccc12 [A5, 2-Chloro-1H-indole-3-carbaldehyde] | 22.2

Same assay, conditions: peritoneal cavity of KM female mice, i.p. 2 × 10^3 tachyzoites; 100 mg/kg oral once a day for 6 days; Toxo 12.28 ± 0.39

Compound | Number of Tachyzoites
N#CCc1cn(C=O)c2ccccc12 [A1, 1-Formyl-1H-indole-3-acetonitrile] | 8.17 ± 0.84 ×10^6
O=Cc1c[nH]c2ccccc12 [A3, Indole-3-carboxaldehyde] | 8.22 ± 1.49 ×10^6
O=Cc1c(Cl)[nH]c2ccccc12 [A5, 2-Chloro-1H-indole-3-carbaldehyde] | 9.56 ± 0.92 ×10^6
Cn1cc(C=O)c2ccccc21 [A8, 1-Methyl-indole-3-carbaldehyde] | 8.92 ± 0.51 ×10^6
c1ccc2[nH]ccc2c1 [Indole, indole] | 10.33 ± 2.84 ×10^6

Tested on: IEC-6 cells with T. gondii infection
Experiment: NO level of T. gondii-infected IEC-6 cells (Griess)
Format: cell-based
Conditions: Griess method, cell supernatant; compared with Toxo group
Experimental: (§3) The Greiss method was used to determine the NO content in small intestine tissues and cells. The above small intestine tissue homogenate or IEC-6 cell supernatant was centrifuged at 4 °C and 1500 rpm for 15 min, and the absorbance was measured at 540 nm by adding equal amounts of Griess A and B reagents to the supernatant. The standard used in the NO standard curve was sodium nitrite, and the NO content in the samples was calculated by substituting the absorbance values of the samples into the regression equation of the standard curve.

Compound | NO level of IEC-6 cells with T. gondii infection
N#CCc1cn(C=O)c2ccccc12 [A1, 1-Formyl-1H-indole-3-acetonitrile] | significantly decreased the release of intracellular nitric oxide
O=Cc1c[nH]c2ccccc12 [A3, Indole-3-carboxaldehyde] | lowest NO release levels; also recorded: significantly decreased the release of intracellular nitric oxide
O=Cc1c(Cl)[nH]c2ccccc12 [A5, 2-Chloro-1H-indole-3-carbaldehyde] | significantly decreased the release of intracellular nitric oxide
Cn1cc(C=O)c2ccccc21 [A8, 1-Methyl-indole-3-carbaldehyde] | significantly decreased the release of intracellular nitric oxide

Tested on: small intestine of mice with T. gondii infection
Experiment: Small intestine and serum biochemical parameters (GSH, MDA, NO, DAO) of T. gondii-infected mice
Format: in vivo
Conditions: 100 mg/kg oral once a day for 6 days
From the text: as §1
The GSH was measured according to the method in [58]. The intestine homogenate was mixed with half volume trichloroacetic acid (20%, w/v) and centrifuged at 4000 rpm for 10 min. Then, phosphate buffer (phosphate 0.3 mol/L, pH 7.5) and 5,5-dithio-bis-(2-nitrobenzoic acid) (0.04%, w/v) were added to the separated supernatant and mixed thoroughly. After 5 min at room temperature, the absorbance was measured at 412 nm.
MDA was measured by the standard method with minor modifications. The small intestine homogenate supernatant was mixed with thiobarbituric acid (0.5%, w/v) and heated in boiling water bath for 1 h, then cooled quickly and centrifuged at 6000 rpm for 10 min; the absorbance of pink colored supernatant was measured at 532 nm. Tetraethoxypropane replaced the intestine homogenate in the standard sample.
as §3
The DAO evaluation experimental method of Xin Y et al. was adopted, in which mouse heart blood was taken from a 1.5 mL centrifuge tube and centrifuged at 4 °C and 3000× g for 10 min, and the upper layer of serum was taken for measurement. Another 1.5 mL tube was taken and 600 μL of phosphate buffer, 20 μL of horseradish peroxidase, 20 μL of dianisidine dihydrochloride hydrochloride, and 20 μL of 1,5-pentanediamine hydrochloride were added. After that, 100 μL of serum samples to be tested was added, mixed well and heated at 37 °C for 18 h. The absorbance was measured at 436 nm. […]. A total of 100 μL of distilled water was used in the blank tube instead of serum, and the standard used in the standard curve was diamine oxidase. The absorbance value of the experimental samples was substituted into the regression equation of the standard curve to calculate the content of DAO in the serum samples.

Compound | DAO level in serum | MDA level in small intestine tissue | NO level in small intestine tissue | GSH level in small intestine tissue
N#CCc1cn(C=O)c2ccccc12 [A1, 1-Formyl-1H-indole-3-acetonitrile] | mitigate the elevated levels | surpassed that of the positive control drug, Spy | mitigate the elevated levels | 
O=Cc1c[nH]c2ccccc12 [A3, Indole-3-carboxaldehyde] | more significant | effective inhibition of the MDA increase | less pronounced compared to the other derivatives | significantly higher than that observed with the positive control drug, Spy
O=Cc1c(Cl)[nH]c2ccccc12 [A5, 2-Chloro-1H-indole-3-carbaldehyde] | mitigate the elevated levels | effective inhibition of the MDA increase | mitigate the elevated levels | 
Cn1cc(C=O)c2ccccc21 [A8, 1-Methyl-indole-3-carbaldehyde] | mitigate the elevated levels |  |  | 

Same assay, conditions: 100 mg/kg oral once a day for 6 days, 100 mg/kg

Compound | MDA level in small intestine tissue | NO level in small intestine tissue
Cn1cc(C=O)c2ccccc21 [A8, 1-Methyl-indole-3-carbaldehyde] | effective inhibition of the MDA increase; also recorded: slightly outperformed A9 | mitigate the elevated levels; also recorded: slightly outperformed A9
